Test results: patent publication US4150231A, “1-Nitro-9-dialkylaminoisoalkylaminoacridines or their salts” (priority 1976, dated 1979)
Entries after “also recorded” stand apart in the source; their conditions may differ.

Tests used:
[1] = tested on: smooth muscle in the small intestine and the urinary bladder; assay: Action on smooth muscle of small intestine and urinary bladder; format: in vivo; conditions: 10 mg/kg, rabbit
[2] = Acute toxicity by oral administration (LD50, MTD); format: in vivo; conditions: in vivo, mice and rats
Protocol: (§1) On the other hand, similar doses as related to oral administration are about 100 mg/kg.
(§2) The MTD-values by oral administration are even lower i.e., by 53-66% than the sharp lethal dose.

mice and rats = assay: Acute toxicity by oral administration (LD50, MTD); format: in vivo
Protocol: as §1, §2

rats [3] = assay: Acute toxicity i.v. in rats (LD50, MTD); format: in vivo
[4] = Acute toxicity i.v. in rats (LD50, MTD); format: in vivo; conditions: rat, in vivo, iv, on average
[5] = tested on: muscular coat of the small intestine; assay: In vitro action on muscular coat of small intestine, guinea-pig; conditions: 10^-5 to 5×10^-5, guinea-pig
[6] = Acute toxicity i.v. in mice (LD50, MTD); format: in vivo; conditions: mouse, in vivo, iv, on average
mice = assay: Acute toxicity i.v. in mice (LD50, MTD); format: in vivo
peripheral blood = assay: Extended toxicity: peripheral blood and clotting; format: in vivo, rabbits and rats
Protocol: (§3) The extended toxicity studies were carried out for a three-month period in rabbits and rats. Doses of from 1/100 to 1/40 LD50 were administered in the case of rabbits, and of from 1/150 to 1/50 LD50 in the case of rats. It should be noted that the highest doses were also the maximum tolerance doses during 12 weeks.

circulatory system [7] = assay: Circulatory and electrocardiographic effects; format: in vivo
[8] = Acute toxicity, signs and comparison with other acridine derivatives; format: in vivo
Protocol: as §1, §2

rabbits = assay: Extended three-month toxicity study in rabbits; format: in vivo; conditions: doses 1/100 to 1/40 LD50
Protocol: as §3

[9] = tested on: muscular coat of the small intestine; assay: In vitro action on muscular coat of small intestine, rat; conditions: 10^-5 to 5×10^-5, rat
circulatory system [10] = assay: Circulatory action in atropinized animals; format: in vivo; conditions: atropinized rabbits
respiratory system = assay: Influence on the respiratory system; format: in vivo
Excerpt: The influence exerted by the preparation on the respiratory system is of two-phases.

lymphatic system = assay: Extended toxicity: lymphatic system; format: in vivo, rabbits and rats; conditions: three-month study
Protocol: as §3

[11] = Local irritation by aqueous solution; format: in vivo
rats [12] = assay: Extended three-month toxicity study in rats; format: in vivo; conditions: doses 1/150 to 1/50 LD50
Protocol: as §3

Crocker Sarcoma (Sa-180) = assay: Inhibition of growth of Crocker Sarcoma (Sa-180) in mice; format: in vivo; conditions: 33 determinations in ten series, different doses
Protocol: The inhibition of growth of Crocker Sarcoma (Sa-180) in mice.
For these experiments mice, three months old and about 25 g in weight were used. Each of them was inoculated with a section of sarcoma (Sa-180 and then they were divided in groups: one of control -- 10 mice, and two to four groups of the "being under treatment"-mice (7 mice each).
The compound investigated in corresponding doses were administered intraperitoneally in appropriate doses, prior to which a maximum tolerance dose was determined.
As a criterion for evaluation of the anti-neoplastic activity of the compounds investigated, the percent difference of the mean weights of tumours isolated from control mice, and the "treated" mice was used, taking into consideration the toxic effects. As active compounds were those which have inhibited, by at least 40%, the growth of the tumours, in at least two tests without any dying of the animals (less than 2 mice), or any mean losses of the weight greater than 4 g.
The investigations in vivo of several compounds were carried out several times, e.g., for the preparation labeled code number C-829, that is for 1-nitro-9-(2-dimethylamino-1-methylethylamino)-acridine dihydrochloride. […] In doses of 0.05 to 0.2 mg/kg the percent of inhibition was 17 to 73%, correspondingly.

reproductory functions = assay: Influence on reproductory functions; format: in vivo
central nervous system = format: in vivo
Excerpt: The preparation C-829 exerted an effect on the principal functions of the central nervous system.

liver = tested on: liver; design: species or system rabbits and rats; conditions: in vivo
Protocol: as §3
By prolonged exposition, the influence of the preparation C-829 on the functions of the parenchymateous organs (liver, kidneys) was investigated. […] Only the thymol turbidity test resulted as a positive one, using the highest dosage of the preparation. But it should be kept in mind, that this test is not too exact.

kidneys = tested on: kidneys; design: species or system rabbits and rats; conditions: in vivo
Protocol: as §3

CC(CN(C)C)Nc1c2ccccc2nc2cccc([N+](=O)[O-])c12.Cl.Cl (stereo not drawn) [Example C-829, 1-nitro-9-(2-dimethylamino-1-methylethylamino)-acridine dihydrochloride]
action on smooth muscle [1]: spasmolytic | LD50 [2]: ~100 mg/kg | MTD by oral administration, lower than the sharp lethal dose by (mice and rats): 53-66% | maximum tolerance dose (MTD), lower than LD50 by (rats [3]): about 30% | LD50 [4]: 13 mg/kg | action on muscular coat of the small intestine [5]: rather a contracting (enterospasmatic) one | LD50 [6]: 21 mg/kg | maximum tolerance dose (MTD), lower than LD50 by (mice): ~20% | influence on the thrombocyte system (peripheral blood; preliminary investigations): did not show the influence of the preparation on the thrombocyte system | picture of the peripheral blood (leukocytic, erythrocytic, hemoglobin levels) (peripheral blood; three-month study): did not change the picture of the peripheral blood | blood clotting (coagulation) time (peripheral blood; three-month study, not correlated with dosage): prolonged the blood clotting (coagulation) time | ECG intervals: PQ and QRS sections (circulatory system [7]; higher doses, intravenously): prolonging the PQ section and in widening the QRS section | blood pressure and conductivity disturbances (circulatory system [7]; higher doses, intravenously): intensified hypotension, induced some disturbances characteristic enough of the acridine compounds both in the atrio-ventricular and intraventricular conductivity | electrocardiographic changes (circulatory system [7]; initially, intravenously, doses increasing to 5 mg/kg): initially was not accompanied by any electrocardiographic changes | effect on blood pressure (circulatory system [7]; intravenously, doses increasing to 5 mg/kg, rabbits, cats): transient hypotension effect | conductivity disturbance at lethal doses (circulatory system [7]; lethal doses): total auriculoventricular dissociation | character of circulatory effect (circulatory system [7]; lower and moderate doses): transient character | action on muscular coat of blood-vessels (circulatory system [7]; rabbit, in vivo): tonic action on the muscular coat of the blood-vessels | period over which animals die ([8]; in vivo): up to 10 days | relative toxicity among the derivatives of acridine ([8]; in vivo): relatively lower toxicity | toxic signs at death ([8]; regardless of the way of administration, dihydrochloride): intensified symptoms of the alimentary canal; also recorded: A sharp intestinal obstruction of the paralytic type occurs | maximum tolerance dose during 12 weeks (highest dose) (rabbits): 1/40 | action on muscular coat of the small intestine [9]: rather a contracting (enterospasmatic) one | change of circulatory action by atropinization (circulatory system [10]): does not change the action of the preparation on the circulatory system | respiratory effect, initial phase (respiratory system; at the appearance of hypotension): instinctive respiratory excitation | respiratory effect, massive doses (respiratory system; massive doses): depressive centrally for respiratory action, leading terminally to an apnoea | lymphatic system: proliferous centers and small lymphocytes (lymphatic system): The structure of the proliferous centers became imperceptible, and also the amount of small lymphocytes diminished | lymphatic system: rete elements (lymphatic system): hypertrophy of rete elements | alterations in the lymphatic system (lymphatic system; especially mesenteric lymph nodes): very discretely marked involutional alterations | local action of aqueous solution ([11]; 0.05-1% aqueous solution): locally irritating action | local action at higher concentrations ([11]; higher concentrations, aqueous solution): narcotizing effect | local irritation with phosphate buffer as solvent ([11]; phosphate buffer solution of Sorensen at pH 7): partially alleviated | maximum tolerance dose during 12 weeks (highest dose) (rats [12]): 1/50 | dose dependence of inhibition of Sa-180 growth (Crocker Sarcoma (Sa-180)): dependent upon the dose | effect on testicles (reproductory functions; 1/50 LD50, 14 days): some retrograde microscopical metaplasia within the germinal epithelium of spermatic tubules of the testicles, leading to a disorder in the spermatogenesis | effect on females fructified and newborn animals per brood (reproductory functions; 1/50 LD50, 14 days prior to connexion): reduced the amount of fructified females, as well as diminished the number of newborn animals in broods | effect on ovary (reproductory functions; 14 days): no observed pathological alteration in the ovary | development of the foetus and newborn animals (reproductory functions; 14 days prior to connexion): no macroscopic disorders of development of the foetus and newborn animals | interaction with soporific (hypnotic) drugs (central nervous system; 10 LD50 (so in the source)): clear depressive component value | action in the presence of cardiazol and strychnine (central nervous system; in vivo): complex and non-characteristic | influence on spontaneous motility (central nervous system; in vivo): devoid, indeed, of an influence on the spontaneous motility of animals | liver function (transaminase AlAt, AspAt, acidic and alkaline phosphatase in serum) (liver): It could not be determined, that it could influence the functions of the liver | liver histology (liver): some weak (hardly perceptible) traits of the parenchymatous degeneration of glandular cells | thymol turbidity test (liver): positive | endogenous creatinine level in the serum (kidneys): remained unchanged | glomerular filterability (kidneys): maintained within standard limits | kidney histology (kidneys): some focal parenchymatous degeneration character in renal tubules | urine: pathological components and specific weight (kidneys): neither induced any appearance of pathological components in urine, nor changed its specific weight
